In PubChem BioAssay AID1745844 (Carcinogenic Potency Database (CPDB), 2022):
“And” between values parts separate entries of the source, which are not always exact repeats. Equal values may be shown once. The source made the active and inactive calls. The rule behind the calls is not given here.

System: rodent lifetime carcinogenesis bioassay, tumor incidence TD50
Experiment: carcinogenic potency in animals, long-term in vivo studies, CPDB compilation (AID 1745844)
[1] = mouse, strain B6C3F1, females, by gavage, site: any site (literature study), lesion: several types, types named in the paper, dosed 103 weeks, study length 104 weeks
[2] = rat, strain Fischer 344, females, by gavage, site: any site (literature study), lesion: several types, types named in the paper, dosed 103 weeks, study length 104 weeks
[3] = rat, strain Fischer 344, males, by gavage, site: any site (literature study), lesion: several types, types named in the paper, dosed 103 weeks, study length 104 weeks

With `CCOC(=O)C(C)(C)Oc1ccc(Cl)cc1` the TD50 (mouse, strain AP Alderly Park, females, in feed, site: liver, lesion: hepatocellular adenoma, dosed 78 weeks, study length 78 weeks) was 1480 mg/kg/day (inactive), the TD50 (mouse, strain AP Alderly Park, males, in feed, site: liver, lesion: hepatocellular adenoma, dosed 78 weeks, study length 78 weeks) was 313 mg/kg/day (inactive) and the TD50 (mouse, strain AP Alderly Park, males, in feed, site: liver, lesion: hepatocellular carcinoma, dosed 78 weeks, study length 78 weeks) was 9710 mg/kg/day (inactive). The TD50 (mouse, strain C57BL/10J, females, in feed, site: liver, lesion: hepatocellular adenoma, dosed 78 weeks, study length 78 weeks) was 14700 mg/kg/day (inactive), the carcinogen call (mouse, strain C57BL/10J, females, in feed, site: lung, lesion: one or several types, types not named, dosed 78 weeks, study length 78 weeks) was “negative (inactive)” and the TD50 (mouse, strain C57BL/10J, males, in feed, site: liver, lesion: hepatocellular adenoma, dosed 78 weeks, study length 78 weeks) was 3640 mg/kg/day (inactive). For the same compound, the carcinogen call (mouse, strain C57BL/10J, males, in feed, site: lung, lesion: one or several types, types not named, dosed 78 weeks, study length 78 weeks) was “negative (inactive)”, the TD50 (rat, strain Fischer 344, males, in feed, site: liver, lesion: hepatocellular carcinoma, dosed 121 weeks, study length 121 weeks) was 169 mg/kg/day and the TD50 (rat, strain Fischer 344, males, in feed, site: pancreas, lesion: acinar-cell carcinoma, dosed 121 weeks, study length 121 weeks) was 1300 mg/kg/day.

Work on `CC(=O)NNc1ccc(CO)cc1` yielded a TD50 (mouse, strain Swiss albino, females, in drinking water, site: blood vessels, lesion: several types, types named in the paper, dosed 115 weeks, study length 115 weeks) of 287 mg/kg/day, a TD50 (mouse, strain Swiss albino, females, in drinking water, site: lung, lesion: several types, types named in the paper, dosed 115 weeks, study length 115 weeks) of 329 mg/kg/day and a TD50 (mouse, strain Swiss albino, males, in drinking water, site: blood vessels, lesion: several types, types named in the paper, dosed 115 weeks, study length 115 weeks) of 252 mg/kg/day. The carcinogen call (mouse, strain Swiss albino, males, in drinking water, site: liver, lesion: hepatoma, dosed 115 weeks, study length 115 weeks) was “negative (inactive)” and the TD50 (mouse, strain Swiss albino, males, in drinking water, site: lung, lesion: several types, types named in the paper, dosed 115 weeks, study length 115 weeks) was 208 mg/kg/day.

`CN=C(N)N` was tested, and the TD50 (rat, strain Wistar, males, in feed, site: liver, lesion: hemangioma, dosed 68 weeks, study length 68 weeks) was 84 mg/kg/day.

Compound `Cc1cccc2ccccc12` has a TD50 (mouse, strain B6C3F1, females, in feed, site: liver, lesion: hepatocellular adenoma, dosed 81 weeks, study length 81 weeks) of 979 mg/kg/day, a TD50 (mouse, strain B6C3F1, females, in feed, site: liver, lesion: hepatocellular carcinoma, dosed 81 weeks, study length 81 weeks) of 6040 mg/kg/day and a TD50 (mouse, strain B6C3F1, males, in feed, site: any site (literature study), lesion: one or several types, types not named, dosed 81 weeks, study length 81 weeks) of 2260 mg/kg/day. The TD50 (mouse, strain B6C3F1, males, in feed, site: lung, lesion: alveolar/bronchiolar adenoma, dosed 81 weeks, study length 81 weeks) was 244 mg/kg/day, the TD50 (mouse, strain B6C3F1, males, in feed, site: lung, lesion: alveolar/bronchiolar carcinoma, dosed 81 weeks, study length 81 weeks) was 1830 mg/kg/day and the TD50 (mouse, strain B6C3F1, males, in feed, site: lung, lesion: several types, types named in the paper, dosed 81 weeks, study length 81 weeks) was 201 mg/kg/day.

For `CC(O)c1ccccc1` (configuration not stated), the carcinogen call [1] was “negative (inactive)”, the TD50 (mouse, strain B6C3F1, males, by gavage, site: any site (literature study), lesion: several types, types named in the paper, dosed 103 weeks, study length 104 weeks) was 2230 mg/kg/day (inactive) and the TD50 [2] was 826 mg/kg/day. For the same compound, the TD50 (rat, strain Fischer 344, females, by gavage, site: liver, lesion: hepatocellular adenoma + hepatocellular carcinoma + neoplastic nodule, dosed 103 weeks, study length 104 weeks) was 8630 mg/kg/day, the TD50 (rat, strain Fischer 344, females, by gavage, site: pancreatic islets, lesion: islet-cell adenoma, dosed 103 weeks, study length 104 weeks) was 2300 mg/kg/day (inactive) and the TD50 (rat, strain Fischer 344, males, by gavage, site: adrenal medulla, lesion: pheochromocytoma + pheochromocytoma, malignant, dosed 103 weeks, study length 104 weeks) was 135 mg/kg/day. For the same compound, the TD50 [3] was 88.6 mg/kg/day, the TD50 (rat, strain Fischer 344, males, by gavage, site: kidney, lesion: tubular-cell adenoma + tubular-cell adenocarcinoma, dosed 103 weeks, study length 104 weeks) was 458 mg/kg/day and 944 mg/kg/day and the TD50 (rat, strain Fischer 344, males, by gavage, site: kidney, lesion: tubular-cell adenoma, dosed 103 weeks, study length 104 weeks) was 984 mg/kg/day and 564 mg/kg/day. For the same compound, the TD50 (rat, strain Fischer 344, males, by gavage, site: liver, lesion: hepatocellular adenoma + hepatocellular carcinoma + neoplastic nodule, dosed 103 weeks, study length 104 weeks) was 4800 mg/kg/day, the TD50 (rat, strain Fischer 344, males, by gavage, site: lung, lesion: alveolar/bronchiolar adenoma + alveolar/bronchiolar carcinoma, dosed 103 weeks, study length 104 weeks) was 1050 mg/kg/day and the TD50 (rat, strain Fischer 344, males, by gavage, site: preputial gland, lesion: carcinoma, NOS, dosed 103 weeks, study length 104 weeks) was 1270 mg/kg/day. For the same compound, the TD50 (rat, strain Fischer 344, males, by gavage, site: testis, lesion: interstitial-cell tumor, dosed 103 weeks, study length 104 weeks) was 51.5 mg/kg/day.

`Nc1ccc(O)c(N)c1` was tested, and the carcinogen call [1] was “negative (inactive)”, the TD50 (mouse, strain B6C3F1, females, by gavage, site: liver, lesion: hepatocellular adenoma + hepatocellular carcinoma + neoplastic nodule, dosed 103 weeks, study length 104 weeks) was 2890 mg/kg/day and the TD50 (mouse, strain B6C3F1, females, by gavage, site: lung, lesion: alveolar/bronchiolar adenoma + alveolar/bronchiolar carcinoma, dosed 103 weeks, study length 104 weeks) was 239 mg/kg/day. The TD50 (mouse, strain B6C3F1, males, by gavage, site: kidney, lesion: tubule adenoma, dosed 103 weeks, study length 104 weeks) was 320 mg/kg/day and 143 mg/kg/day, the TD50 (mouse, strain B6C3F1, males, by gavage, site: liver, lesion: hepatocellular adenoma + hepatocellular carcinoma + neoplastic nodule, dosed 103 weeks, study length 104 weeks) was 164 mg/kg/day and the TD50 (mouse, strain B6C3F1, males, by gavage, site: lung, lesion: alveolar/bronchiolar adenoma + alveolar/bronchiolar carcinoma, dosed 103 weeks, study length 104 weeks) was 194 mg/kg/day. For the same compound, the TD50 [2] was 46.3 mg/kg/day (inactive) and the TD50 [3] was 543 mg/kg/day (inactive).
